# Values quoted from earlier work, collected in paper PMC9347208, “Pharmacological activation of the hERG K^+ channel for the management of the long QT syndrome: A review” (Journal of Arrhythmia, 2022).
# Entries after “also recorded” stand apart in the source; their conditions may differ. Read-outs that look alike come from different tables or passages of the source.
# How the values were obtained:
# IK1 [1] = system: IK1; design: method as in PMID 29050968, PMID 20097192, PMID 12931255; conditions: ref [41], [55], [81]
# IKATP channels = system: IKATP channels; design: method as in PMID 29050968, PMID 20097192, PMID 12931255; conditions: ref [41], [55], [81]
# [2] = system: voltage‐dependent Na^+ channels; design: method as in PMID 29050968, PMID 20097192, PMID 12931255; conditions: ref [41], [55], [81]
# Ito [3] = system: Ito; design: method as in PMID 29050968, PMID 20097192, PMID 12931255; conditions: ref [41], [55], [81]
# IKs [4] = system: IKs; design: method as in PMID 29050968, PMID 20097192, PMID 12931255; conditions: ref [41], [55], [81]
# ICa,L [5] = system: ICa,L; design: method as in PMID 29050968, PMID 20097192, PMID 12931255; conditions: ref [41], [55], [81]
# hERG channel [6] = conditions: for Type: type of hERG activator by main mechanism of action, ref [40]
# hERG channel [7] = system: hERG channel
# [8] = system: Ca^2+‐activated K^+ (BK channel); conditions: ref [41], [55], [81]
# IKAch = system: IKAch; design: method as in PMID 29050968, PMID 20097192, PMID 12931255; conditions: ventricular guinea pig myocytes; ref [41], [55], [81]
# hERG channel [9] = conditions: astemizole, sertindole, dofetilide, and cisapride, radioligand assays, ref [19] and column References of the table row
# hKv4.3 (Ito) = conditions: ref [19], [29]
# IKr = conditions: native human cardiomyocytes from LQT1 patients; ref [19], [29]
# hCav1.2 (ICa,L) = system: hCav1.2 (ICa,L); design: method as in column Ref. of the table row
# hKir2.1 (IK1) = conditions: ref [19], [29]
# [10] = system: ventricular repolarisation (APD, QT interval)
# IK1 [11] = system: IK1
# guinea pig hearts = conditions: Langendorff‐perfused Guinea pig hearts, high concentrations; ref [16], [27], [32], [41], [48], [58], [61], [70], [84]
# [12] = system: neuronal Kv12.1 ether‐à‐ go‐go‐gene‐like (elk3) channel; design: method as in PMID 24041920, PMID 25809254, PMID 18452879, PMID 29050968, PMID 25191697; conditions: ref [16], [27], [32], [41], [48], [58], [61], [70], [84]
# hERG1a and hERG1b = system: hERG1a and hERG1b; design: method as in column Ref. of the table row
# [13] = system: perfused canine atrial preparations; design: method as in PMID 15976038, PMID 29050968, PMID 19892732, PMID 31877041, PMID 23840331; conditions: ERP abbreviation and TDR amplification, ref [22], [41], [52], [53], [59], [60]
# [14] = system: APD, EADs, and QT prolongation; design: method as in PMID 15976038, PMID 29050968, PMID 19892732, PMID 31877041, PMID 23840331; conditions: 3 μM; caused by high‐affinity inhibitor dofetilide; ref [22], [41], [52], [53], [59], [60]
# hERG channel mutants = system: hERG channel mutants; design: method as in column Ref. of the table row; conditions: mutation named in the value
# SQT1 model = system: SQT1 model; design: method as in column Ref. of the table row; conditions: by creating the substrate for reentry
# IKs [15] = system: IKs; design: method as in PMID 15976038, PMID 29050968, PMID 19892732, PMID 31877041, PMID 23840331; conditions: recorded from isolated guinea pig cardiomyocytes; ref [22], [41], [52], [53], [59], [60]
# E637K hERG mutant = system: E637K hERG mutant; design: method as in PMID 15976038, PMID 29050968, PMID 19892732, PMID 31877041, PMID 23840331; conditions: ref [22], [41], [52], [53], [59], [60]
# ICa,L [16] = conditions: recorded from guinea pig cardiomyocytes
# Ito [17] = system: Ito; design: method as in PMID 29050968, PMID 18042732; conditions: ventricular cardiomyocytes isolated from rabbit hearts; ref [41], [83]
# ICa,L [18] = system: ICa,L; design: method as in PMID 29050968, PMID 18042732; conditions: ventricular cardiomyocytes isolated from rabbit hearts; ref [41], [83]
# Kv1.5 (IKur) = conditions: 50 μM; ref [19], [21]
# [19] = system: Dofetilide‐induced arrhythmias; conditions: after pretreatment; ref [19], [21]
# [20] = suggested, as no change to AP amplitude and diastolic potential of guinea pig cardiomyocytes
# [21] = recorded from isolated guinea pig cardiomyocytes, ref [22], [41], [52], [53], [59], [60]
smiles,measurement,setting,value
Cc1oc2ccccc2c1Cc1cc(I)c(OCC(=O)O)c(I)c1 [KB130015],Channel selectivity: effect on IK1,IK1 [1],No effect
same,Channel selectivity: effect on IKATP channels,IKATP channels,Inhibits
same,Channel selectivity: effect on voltage‐dependent Na^+ channels,[2],Slows the inactivation
same,Channel selectivity: effect on Ito,Ito [3],No effect
same,Channel selectivity: effect on IKs,IKs [4],Activates
same,"Channel selectivity: effect on ICa,L","ICa,L [5]",Inhibits
same,Type,hERG channel [6],3
same,"Reported benefit for LQTS: diLQTS, hERG block by amiodarone and E‐4031","hERG channel [7]; ref [41], [55], [81]",diLQTS: Functionally competes with hERG block by amiodarone and E‐4031.
same,Channel selectivity: effect on large‐conductance calcium‐activated potassium (BK) channels,[8],Activates
same,Channel selectivity: effect on IKAch,IKAch,inhibits
O=C(COc1ccc(C(=O)c2ccccc2)cc1)Nc1cccnc1 [ML‐T531],Channel selectivity: effect on recombinant hNav1.5 (INa),hNav1.5 (INa),No effect
same,Allosteric effect on the binding of hERG blockers,hERG channel [9],Negative effect on the binding
same,Allosteric effect on the binding of hERG blockers,hERG channel [9]; listed as MLT‐531,negative allosteric modulators
same,Channel selectivity: effect on hKCNQ1‐KCNE1 channels (IKs),"hKCNQ1‐KCNE1 (IKs); 10 μM, ref [19], [29]",minor suppressive effect
same,Channel selectivity: effect on recombinant hKv4.3 (Ito),hKv4.3 (Ito),No effect
same,"Reported benefit for LQT: cLQTS, IKr",IKr,IKr increase
same,"Channel selectivity: effect on recombinant hCav1.2 (ICa,L)","hCav1.2 (ICa,L)",No effect
same,Channel selectivity: effect on recombinant hKir2.1 (IK1),hKir2.1 (IK1),No effect
"O=C(Nc1cc(C(F)(F)F)ccc1O)Nc1cc(C(F)(F)F)ccc1O [NS1643, 1,3‐bis‐(2‐hydroxy‐5‐trifluoromethyl‐phenyl)‐urea]",Efficacy against triggered activity,"[10]; low concentration, in vitro and ex vivo experimental models, ref [32]",effective against triggered activity
same,TDR and instability of the QT interval,"[10]; only in the presence of an I Ks inhibitor, ref [16]",markedly amplify
same,Channel selectivity: effect on cardiac IK1,IK1 [11]; [20],Suggested absence
same,Effect against Nav1.5 channels,hNav1.5 (INa); ref [32],inhibitory effects
same,Reported associated pro‐arrhythmic risk: ventricular tachycardia and fibrillation,guinea pig hearts,Induces ventricular tachycardia and ventricular fibrillation
same,Channel selectivity: effect on neuronal Kv12.1 (elk3) channel,[12],Inhibitor
same,Potency in reducing hERG channel inactivation,"hERG channel [6]; ref [16], [31]",modest potency compared with ICA‐105574
same,Type,hERG channel [6],"1, 2, and possibly 3"
same,Channel selectivity: sensitivity of hERG1a versus hERG1b,hERG1a and hERG1b,Differential sensitivity
same,"Reported benefit for LQT: diLQTS, effects of hERG inhibition by drug inhibitors","hERG channel [7]; 10 μM, inhibitors e.g. E‐4031, dofetilide, moxifloxacin, ref [16], [27], [32], [41], [48], [58], [61], [70], [84]",attenuate electrophysiological effects associated with hERG inhibition by various drug inhibitors; also recorded: did not reverse the inhibition to the control levels
same,Channel selectivity: effect on cardiac INa,INa; [20],Suggested absence
O=C(O)c1ccccc1Nc1ccc(CCc2ccc(Cl)c(Cl)c2)cc1 [PD‐118057],Reported associated pro‐arrhythmic risk: arrhythmia provocations,[13],Increases arrhythmia provocations
same,Effect on PRRP and QT interval,"[10]; ref [21], [60], [61]",increase the PRRP and shorten the QT interval but potentially to the point of triggering arrhythmia
same,Channel selectivity: effect on IK1,IK1 [11]; [21],"No effect on INa, ICa‐L, IK1, and IKs recorded from isolated guinea pig cardiomyocytes."
same,Reported benefit for LQTS: diLQTS,[14],"prevents APD, EADs, and QT prolongation"
same,Molecular determinants of activity: effect of hERG mutations on agonist activity,hERG channel mutants,Mutation to F619 and L646 suppresses agonist activity; also recorded: Mutation to C643 and M645 enhances drug activity
same,Reported associated pro‐arrhythmic risk: SQT1 manifestations,SQT1 model,Recapitulates the electrophysiological and arrhythmic manifestations of SQT1
same,Channel selectivity: effect on IKs,IKs [15],"No effect on INa, ICa‐L, IK1, and IKs recorded from isolated guinea pig cardiomyocytes."
same,Type,hERG channel [6],4
same,"Reported benefit for LQTS: cLQTS, rescue of E637K hERG mutant",E637K hERG mutant,Failed to rescue
same,"Channel selectivity: effect on cardiac ICa,L","ICa,L [16]","No effect on INa, ICa‐L, IK1, and IKs recorded from isolated guinea pig cardiomyocytes."
same,Channel selectivity: effect on INa,INa; [21],"No effect on INa, ICa‐L, IK1, and IKs recorded from isolated guinea pig cardiomyocytes."
O=C(O)c1cccnc1Nc1ccc2c(c1)CN(c1ccc(Cl)c(Cl)c1)C2 [PD‐307243],Channel selectivity: effect on Ito,Ito [17],no effect
same,Channel selectivity: effect on recombinant hNav1.5 (INa),hNav1.5 (INa),No effect
same,Channel selectivity: effect on recombinant hKCNQ1‐KCNE1 (IKs),hKCNQ1‐KCNE1 (IKs),No effect
same,Reported benefit for LQT: activator effect in presence of BeKm‐1,"hERG channel [7]; ref [41], [83]",potentiated
same,"Reported benefit for LQT: diLQTS, interaction with dofetilide","hERG channel [7]; ref [41], [83]",Dofetilide prevents the activator effect of PD and unmasks its current suppressing effect
same,"Channel selectivity: effect on ICa,L","ICa,L [18]",Activates
O=C(COc1ccc2ccccc2c1Br)Nc1cccnc1 [VU0405601],Channel selectivity: effect on recombinant cardiac Kv1.5 (IKur),Kv1.5 (IKur),"No or small effect of 50 μM on recombinant cardiac Kv1.5 (IKur), Nav1.5 (INa), and KCNQ1 + KCNE1 (IKs) channels."
same,Channel selectivity: effect on recombinant Nav1.5 (INa),"hNav1.5 (INa); 50 μM, ref [19], [21]","No or small effect of 50 μM on recombinant cardiac Kv1.5 (IKur), Nav1.5 (INa), and KCNQ1 + KCNE1 (IKs) channels."
same,Allosteric effect on the binding of hERG blockers,hERG channel [9],negative allosteric modulators; also recorded: weaken interactions
same,Channel selectivity: effect on recombinant KCNQ1 + KCNE1 (IKs),"hKCNQ1‐KCNE1 (IKs); 50 μM, ref [19], [21]","No or small effect of 50 μM on recombinant cardiac Kv1.5 (IKur), Nav1.5 (INa), and KCNQ1 + KCNE1 (IKs) channels."
same,"Reported benefit for LQT: diLQTS, dofetilide‐induced arrhythmias",[19],reduced
